From publication PMC5961436, “PKA and PKC Modulators Affect Ion Channel Function and Internalization of Recombinant Alpha1 and Alpha1-Beta Glycine Receptors” (Frontiers in Molecular Neuroscience, 2018)
Read-outs that look alike come from different tables or passages of the source.

Assays:
[1] = tested on: GlyRα1; design: method as in Huang et al., 2007; conditions: ref Huang et al., 2007; cited from earlier work
[2] = tested on: GlyR α1-β; assay: Receptor internalization assay (pre-labeled GlyRs, confocal microscopy) in HEK293 cells; assay type: cell-based, human; conditions: 200 nM modulator, 15 min, 37°C; untreated cells 1.7 ± 0.4 dots/cell; ± SEM
Experimental: To stain internalized GlyRs, GlyR α1 was cotransfected with GlyR β into HEK293 cells grown on glass cover slips. Internalization experiments were performed 24 h post-transfection. Live cells co-expressing GlyR α1-β receptors were labeled with the α1-specific monoclonal antibody Mab2b (1:500 in Earle’s minimal essential medium for 1 h at 4°C). Earle’s minimal essential medium was supplemented with 10% fetal calf serum, […] GlutaMAX, 100 mM sodium pyruvate, and 50 U/ml penicillin/streptomycin (Thermo Fisher Scientific, Waltham, MA, USA). Mab2b was purchased from Synaptic Systems, Göttingen, Germany. Following three washing steps in phosphate-buffered saline (PBS, pH 7.4), cells were incubated with goat-anti-mouse-Cy3 secondary antibody again for 1 h at 4°C (dilution of secondary antibody 1:500 in Earle’s minimal essential medium, Dianova, Hamburg Germany). Glass cover slips with pre-labeled GlyRs were transferred into a 24-well plate containing 500 μl of Earle’s minimal essential medium with PKA and PKC modulators (200 nM final concentration each; Forskolin, H-89, PMA, Staurosporine aglycon, all from Sigma-Aldrich Chemie GmbH, Munich, Germany). Cells were incubated with modulators for 15 min to allow receptor internalization. Time point zero (0 min) was taken as a negative internalization control to ensure health of HEK293 cells (pre-labeling of GlyRs at 4°C inhibits internalization). Following incubation with PKA and PKC modulators, cells were stained with a second secondary antibody (donkey-anti-goat-Dyelight488, 1:250 in Earle’s minimal essential medium, Dianova, Hamburg, Germany) for 30 min at 4°C to label receptor retained at the cellular surface. Cells were fixed with 4% paraformaldehyde, 4% sucrose in PBS for 15 min at 4°C, washed three times in PBS and stained with 4′,6-diamidino-2-phenylindole (DAPI, Thermo Fisher Scientific, Waltham, MA, USA) to label the cell nuclei for 5 min at 4°C (1:5000 in PBS). Coverslips were washed again with PBS and Aqua Dest and mounted on glass slides using mowiol.
The images were obtained using an inverted Olympus IX81 microscope equipped with an Olympus FV1000 confocal laser scanning system, a FVD10 SPD spectral detector and diode lasers of 495 nm (Alexa488) and 550 nm (Cy3; Olympus, Tokyo, Japan), and an Olympus UPLSAPO 60× (oil, numerical aperture: 1.35) objective. Adobe Photoshop (Adobe, San Jose, CA, USA) or ImageJ (1.51)/Fiji^1 were used for image analysis.

[3] = tested on: human homomeric α1 GlyRs; assay: Whole-cell patch-clamp of glycine induced currents, modulators in the intracellular buffer, HEK293 cells expressing GlyR α1; assay type: cell-based
Experimental: (§1) HEK293 cells were grown in 10 cm tissue culture Petri dishes in Eagle minimal essential medium (Sigma-Aldrich Chemie GmbH, Munich, Germany) supplemented with 10% FBS (Invitrogen, Karlsruhe, Germany) and penicillin/streptomycin (Sigma-Aldrich Chemie GmbH, Munich, Germany) at 5% CO2 and 37°C in a water saturated atmosphere. For electrophysiological experiments, cells were plated on poly-L lysine treated glass coverslips in 6 cm dishes. Transfection was performed 1 day after cell passage using Gen-Carrier (Epoch Lifesciences, Sugarland, TX, USA): 1.3 μg of receptor DNA, 1.3 μg of green fluorescent protein DNA, and 2.6 μl GenCarrier were used, following the manufacturer’s instructions. Measurements were performed 2–4 days after transfection. HEK293 cells used for protein expression and internalization analysis were transfected using a modified calcium phosphate precipitation method. In brief, a mixture of plasmid DNA, CaCl2 (2.5M), 0.1× TE buffer and 2× HBS (50 mM HEPES, 12 mM glucose, 10 mM KCl, 280 mM NaCl, 1.5 mM Na2HPO4) was applied onto the cells for 6 h. A GlyR α1 to GlyR β ratio of 1:2 was used for co-expression. Transfection medium was replaced by fresh medium after 6 h. Immunocytochemical stainings were always done 24 h after transfection, biotinylation experiments were performed 48 h after transfection.
(§2) using a nonlinear algorithm in Microcal Origin. Here, Iglycine is the current amplitude at a given glycine concentration, Isat is the maximum current amplitude at saturating concentrations of glycine, EC50 is the glycine concentration at half-maximal current responses, and nHill is the Hill coefficient. Currents from each individual cell were normalized to the maximum response at saturating glycine concentrations. Significance of differences between EC50 values were determined using one-way ANOVA with p ≤ 0.05 (*) and p ≤ 0.01 (**) taken as significant. In all experiments, EC50 values were determined for each individual cell from a non-linear fit of dose response data to the logistic equation. An unweighted average ± standard error (SEM) was calculated from all individual EC50 values, without considering the fitting errors.
(§3) For time course analysis, a series of EC50 data was recorded from each cell. The first concentration-response curve, defined as t = 0, was recorded immediately after establishing the whole-cell configuration and positioning the cell in front of the delivery tube. […] Further recordings were made at t = 3 min, t = 6 min and t = 10 min (not attained with all cells). Time-independent recordings were taken at t = 0, and values of EC50 and Imax in the presence of PKA- or PKC modulators were normalized to control (no modulator). For time course analysis, responses were normalized to the control value at t = 0. Patch-clamp experiments were carried out on different dates and using different batches of HEK 293 cells. Since control EC50 values varied between different days of plating and between batches of cells, measurements with kinase modulators were always compared to control measurements recorded on the same day and from the same batch of cells.

[4] = tested on: human heteromeric α1-β GlyRs; assay: Whole-cell patch-clamp of glycine induced currents, modulators in the intracellular buffer, HEK293 cells expressing GlyR α1-β; assay type: cell-based; conditions: 0.5 μM modulator in intracellular buffer
Experimental: as §1, §2, §3

[5] = tested on: GABA- and Gly-gated currents; design: method as in Machu et al., 2006; conditions: HEK293 cells, ref Machu et al., 2006, cited from earlier work
[6] = tested on: GlyR; design: method as in Vaello et al., 1994; conditions: ref Vaello et al., 1994; cited from earlier work
[7] = tested on: glycine currents; design: method as in Tapia et al., 1997; conditions: ref Tapia et al., 1997; cited from earlier work
[8] = tested on: GABA- and Gly-gated currents; design: method as in Machu et al., 2006; conditions: oocytes; ref Machu et al., 2006; cited from earlier work
[9] = GlyR α1, 0.5 μM modulator in intracellular buffer
[10] = GlyR α1, 0.5 μM modulator in intracellular buffer, mean ± SEM

CCCCCCCCCCCCCC(=O)O[C@@H]1[C@@H](C)[C@@]2(O)[C@@H](C=C(CO)C[C@]3(O)C(=O)C(C)=C[C@@H]23)[C@@H]2C(C)(C)[C@]12OC(C)=O [PMA, phorbol-12-myristate-13-acetate]
start of receptor internalization [1]: ≤ 15 min
internalized receptor [2]: 3.9 ± 0.7 dots/cell
change of Imax at t = 10 min normalized to t = 0 ([3]; 0.25 μM intracellular modulator, one-way ANOVA): significantly reduced
effect on EC50 ([3]; 0.25 μM modulator, t = 0): increased EC50
desensitization of glycine induced currents [3, 9]: no effect on receptor desensitization
effect on EC50 compared to control [3, 9]: increased
Fraction of desensitizing cells [3, 10]: 0.05 ± 0.05
Imax [3, 10]: 2.30 ± 0.74 nA
desensitization of glycine induced currents [4]: no effect on receptor desensitization
effect on EC50 compared to control [4]: not statistically significant
Fraction of desensitizing cells ([4]; mean ± SEM): 0.27 ± 0.08
Imax ([4]; mean ± SEM): 1.26 ± 0.27 nA
modulation of receptors ([5]; 35°C): decreased the function
modulation of receptors ([5]; room temperature): ineffective
effect on glycinergic currents [6]: decreased glycinergic currents
effect on glycine currents [7]: reduce the amplitude of glycine currents
peak amplitude of GABA- and Gly-gated currents [8]: large, reproducible decrease
